Data as given in patent publication US20020054941A1, “Methods and compositions to enhance tenderness and value of meat” (The Board of Regents of the University of Nebraska, priority 2000, published 2002).
Marks after values point to notes of the source that are not given here.

Experiments:
[1] = test system: sternomandibularis beef muscles; experiment: Shear force of pre-rigor injected sectioned muscle; settings: 200 mM (glucose, calcium chloride 300 mM)
Description: Pre-rigor beef muscle was sectioned into 100 g. samples at approximately 3 hours post-mortem. The pieces were injected with 10 mL of treatment solution followed by marination in the solution for 24 hours at 2° C. before testing pH and recording visual color of the muscle sections. For evaluation of shear force, samples were thawed, cooked, sliced (approximately 6 mm by 6 mm) and then cooled before readings were taken. The solutions used for this procedure were as described above for homogenized muscle.
(§1) Pre-rigor beef muscle was sectioned and the sections were injected at approximately 1 hour post-mortem with a volume of treatment solution equal to 10% of the muscle weight. Objective color measurements were taken on pieces of each muscle section and the pieces were then frozen, powdered and stored at −80° C. for up to 10 days before testing pH and analyzing oxidation-reduction potential. Shear force was evaluated as described immediately above. Solutions used in this procedure were as follows: sodium citrate (200 mM), sodium acetate (200 mM), glucose (300 mM), calcium citrate (200 mM), calcium chloride (300 mM), injection with water, and no injection (control). The calcium citrate solution was prepared as a suspension using 0.25% carrageenan and 200 mM calcium citrate due to its insolubility in water. However, use of calcium citrate can be optimized by increasing solubility by means known in the art.

[2] = test system: sternomandibularis beef muscles; experiment: pH of pre-rigor injected sectioned muscle; settings: injection 10% of muscle weight, 200 mM (glucose, calcium chloride 300 mM)
Description: as §1

[3] = test system: triceps brachii beef muscles; experiment: Muscle pH, pre-rigor injection of whole muscle; settings: 200 mM, calcium chloride 300 mM; for pH, 0 h: 0 h (before injection); for pH, 24 h: 24 h after injection; for pH, 72 h: 72 h after injection
Description: (§2) Experiment were conducted to test the effects of pre-rigor injection of several compounds. Effects of these compounds on pH, color, tenderness and other related traits of low-value beef cuts were investigated. Ten steers (22 to 24 mo of age, 515 to 676 kg live weight) were slaughtered according to current industry procedures. Pre-rigor semimembranosus (from the round), triceps brachii and supraspinatus muscles (from the chuck) were excised, after evisceration (approximately 1 hour post-mortem), from both sides of the carcass. Muscle sections were randomly assigned to the treatments: sodium citrate (NaC; 200 mM), sodium fluoride (NaF; 200 mM), sodium acetate (NaA; 200 mM), and calcium chloride (CaCl2; 300 mM). The control samples remained on the carcass at 2° C. for 24 hours to simulate commercial conditions. Following a cooling, control muscles were removed from each carcass (4 replicates), vacuum packaged and transferred to the holding cooler with the other cuts at 2° C. Calcium chloride treatment was included to be compared with the other treatments.
(§3) At 2 hours post-mortem, each muscle was injected with a volume equal to 8% of the muscle weight using a four-needle hand injector. The temperature of solutions were 4° C. Each muscle was individually treated (2% of solution was added to give a total of 10% of muscle weight) and tumbled in a 75-pound capacity tumbler (Röschermatic, Oshabrück, Germany) for 30 min to insure uniform distribution of the solution.
(§4) Samples of each muscle (approximately 100 g) were taken at 0 hour (before injection), 24, and 72 hours after injection for determination of pH, oxidation-reduction potential, glycogen content, R-values, NAD, and NADH. The samples were then immediately frozen in liquid nitrogen and stored at −80° C. until they were powdered and analyzed. Fresh muscle samples (approximately 20 g) were taken at 72 hours after injection and assayed immediately for water holding capacity and sarcomere length.
(§5) Duplicate pre-rigor samples (5 g) were weighed from powdered sample and homogenized (Polytron, Brinkman Instruments, New York, N.Y.) in 50 mL of 5 mM iodoacetic acid, 150 mM potassium chloride (pH 7.0, 24° C.) to stop glycolysis (Ahn et al., 1992). The pH of the suspension was measured with a general purpose electrode (Corning Glass Works, Corning, N.Y.) attached to an Orion Model SA 720 pH meter (Orion Research, Inc., Boston, Mass.). Post-rigor muscle pH was determined by homogenizing 5 g of sample in 50 mL of deionized water (Winger et al., 1979).

[4] = test system: supraspinatus beef muscles; experiment: Muscle pH, pre-rigor injection of whole muscle; settings: for pH, 0 h: 0 h (before injection); for pH, 24 h / pH, 72 h: 200 mM, calcium chloride 300 mM
Description: as §2, §3, §4, §5

[5] = test system: semimembranosus beef muscles; experiment: Muscle pH, pre-rigor injection of whole muscle; settings: for pH, 0 h: 0 h (before injection); for pH, 24 h / pH, 72 h: 200 mM, calcium chloride 300 mM
Description: as §2, §3, §4, §5

[6] = test system: triceps brachii beef muscles; experiment: Glycogen content, pre-rigor injection of whole muscle; settings: 200 mM, calcium chloride 300 mM; for Glycogen, 0 h: 0 h (before injection)
Description: as §2, §3, §4
(§6) Glycogen extraction was performed in duplicate with 3 g of frozen-powdered muscle sample, which was homogenized with 0.6 N perchloric acid. Amylo-α-1,4-α-1,6- glucosidase from Aspergillus niger (No. A3514. Sigma Chemical, St. Louis, Mo.) was used for the breakdown of the glycogen molecules to free glucose following the method described by Roehrig and Allred (1974). Homogenate was incubated for 2 hours at 37° C., then 100 μL of 3 N perchloric acid was added to precipitate the proteins. After centrifugation, the supernatant was stored at 0-4° C., until analyzed, which was within 2 weeks.
(§7) The assay for glucose was run as described by Dalrymple and Hamm (1973) and Roehrig and Allred (1974), using glucose-6-phosphate dehydrogenase (No. G8878. Sigma Chemical, St. Louis, Mo.) and hexokinase (No. H5500. Sigma Chemical, St. Louis, Mo.). Briefly, the method involves an exoglucosidase, Amylogucosidase, from Aspergillus niger which hydrolyses the -α-D-(1-4) and -α-D-(1-6)-linkages of glycogen. The glucose formed is specifically determined with hexokinase and glucose-6-phosphate dehydrogenase. The glucose liberated after hydrolysis of glycogen is proportional to the increase of absorbance measured at 340 nm. Fifty μL of sample was incubated with 1 mL ATP, NADP, Glucose-6-phosphate dehydrogenase buffer and 5 μL hexokinase at 37° C. for 15 min. Absorbance was measured at 340 nm wavelength, light path=1 cm. The muscle glycogen content was calculated with the following formula: Glycogen (μmol glucose/g wet muscle weight)=111.882×absorbance. 111.882 is the dilution factor.

[7] = test system: supraspinatus beef muscles; experiment: as above; settings: for Glycogen, 0 h: 0 h (before injection); for Glycogen, 24 h / Glycogen, 72 h: 200 mM, calcium chloride 300 mM
Description: as §2, §3, §4, §6, §7

[8] = test system: semimembranosus beef muscles; experiment: as above; settings: for Glycogen, 0 h: 0 h (before injection); for Glycogen, 24 h / Glycogen, 72 h: 200 mM, calcium chloride 300 mM
Description: as §2, §3, §4, §6, §7

[9] = test system: triceps brachii beef muscles; experiment: Warner-Bratzler shear force, pre-rigor injection of whole muscle; settings: 200 mM, calcium chloride 300 mM; for Shear force, 3 d: 3 d postmortem; for Shear force, 7 d: 7 d postmortem; for Shear force, 14 d: 14 d postmortem
Description: as §2, §3
(§8) Tenderness of samples was evaluated by measuring Warner-Bratzler shear force. Steaks (2.54-cm thick) from the middle of each muscle were cut and frozen at 3, 7 and 14 days postmortem. Frozen steaks (2.54 cm thick) were thawed at 4° C. for 24 hours and cooked on Farberware Open Hearth Broilers (Model 350A Walter Kidde, Bronx, N.Y.) to an internal temperature of 40° C., turned, and cooked to a final internal temperature of 70° C. (AMSA, 1995). Temperature was monitored using an OMEGA thermocouple thermometer type T (Omega Engineering, Inc., Stamford, Conn.) inserted into the geometric center of a steak. The cooked steaks were chilled 2 hours at 2° C., and then 8 cores (1.27-cm diameter) were removed parallel to the muscle fiber orientation. Cores were sheared once each on an Instron Universal Testing Machine model 55R1123 (Instron, Canton, Mass.) with a Warner-Braztler attachment. The Instron was set up with a 500 kg load cell, full scale load=1 (0-10 kg), and crosshead speed=250 mm/mim.

[10] = test system: supraspinatus beef muscles; experiment: as above; settings: 200 mM; for Shear force, 3 d: 3 d postmortem; for Shear force, 3 d / Shear force, 7 d: calcium chloride 300 mM; for Shear force, 7 d: 7 d postmortem; for reduced shear force compared with controls: supraspinatus, 3 days post-mortem, CaCl2 300 mM
Description: as §2, §3, §8

[11] = test system: semimembranosus beef muscles; experiment: as above; settings: 200 mM, calcium chloride 300 mM; for Shear force, 3 d: 3 d postmortem; for Shear force, 7 d: 7 d postmortem; for Shear force, 14 d: 14 d postmortem
Description: as §2, §3, §8

Row | Compound | Shear force, kg (72 h) [1] | PH (0 h) [2] | pH, 72 h [2] | pH, 0 h [3] | pH, 24 h [3] | pH, 72 h [3] | pH, 0 h [4] | pH, 24 h [4] | pH, 72 h [4] | pH, 0 h [5] | pH, 24 h [5] | pH, 72 h [5] | Glycogen, 0 h [6] [μmol/g muscle] | Glycogen, 24 h [6] | Glycogen, 72 h [6] | Glycogen, 0 h [7] [μmol/g muscle] | Glycogen, 24 h [7] [μmol/g muscle] | Glycogen, 72 h [7] | Glycogen, 0 h [8] [μmol/g muscle] | Glycogen, 24 h [8] | further results
1 | [Ca+2].[Cl-].[Cl-] [Calcium chloride, calcium chloride, reference compound] | 6.61^a kg | 6.77 | 5.88^d | 6.77 | 5.84^b | 5.67^b | 6.75 | 5.88^c | 5.54^c | 6.76 | 5.77^b | 5.60^c | 39.14 | 28.76^b μmol/g muscle | 25.01^bc μmol/g muscle | 37.98 | 26.75 | 19.31^b μmol/g muscle | 58.18 | 45.90^ab μmol/g muscle | Glycogen, 72 h [8]: 37.10^ab μmol/g muscle; Shear force, 3 d [9]: 4.95^bc kg; Shear force, 7 d [9]: 4.87^b kg; Shear force, 14 d [9]: 4.07 kg; Shear force, 3 d [10]: 5.55^c kg; Shear force, 7 d [10]: 4.84^b kg; reduced shear force compared with controls [10]: 1.73 kg; Shear force, 3 d [11]: 6.28 kg; Shear force, 7 d [11]: 5.36 kg; Shear force, 14 d [11]: 4.03 kg
2 | O=C([O-])CC(O)(CC(=O)[O-])C(=O)[O-].O=C([O-])CC(O)(CC(=O)[O-])C(=O)[O-].[Ca+2].[Ca+2].[Ca+2] [Calcium citrate, calcium citrate] | 7.57^a kg | 6.92 | 5.82^cd | – | – | – | – | – | – | – | – | – | – | – | – | – | – | – | – | – | –
3 | CC(=O)[O-].[Na+] [Sodium acetate, sodium acetate] | 9.88^ab kg | 6.86 | 5.80^cd | 6.78 | 5.80^b | 5.48^c | 6.81 | 5.85^c | 5.64^c | 6.75 | 5.70^b | 5.38^d | 49.53 | 28.74^b μmol/g muscle | 27.22^b μmol/g muscle | 42.83 | 24.43 | 18.10^b μmol/g muscle | 64.24 | 40.88^b μmol/g muscle | Glycogen, 72 h [8]: 28.64^b μmol/g muscle; Shear force, 3 d [9]: 6.47^a kg; Shear force, 7 d [9]: 5.96^a kg; Shear force, 14 d [9]: 4.67 kg; Shear force, 3 d [10]: 7.85^a kg; Shear force, 7 d [10]: 6.95^a kg; Shear force, 7 d ([10]; listed as NaA): significant increase in shear force; Shear force, 3 d [11]: 6.61 kg; Shear force, 7 d [11]: 5.78 kg; Shear force, 14 d [11]: 5.08 kg
4 | [F-].[Na+] [Sodium fluoride, sodium fluoride, reference compound] | – | – | – | 6.76 | 6.07^a | 5.95^a | 6.72 | 6.23^a | 6.09^a | 6.70 | 6.08^a | 5.97^a | 48.22 | 43.98^a μmol/g muscle | 37.30^a μmol/g muscle | 45.49 | 37.37 | 30.46^a μmol/g muscle | 62.90 | 54.03^b μmol/g muscle | Glycogen, 72 h [8]: 43.77^a μmol/g muscle; Shear force, 3 d [9]: 5.18^bc kg; Shear force, 7 d [9]: 4.82^b kg; Shear force, 14 d [9]: 4.09 kg; Shear force, 3 d [10]: 6.13^bc kg; Shear force, 7 d [10]: 4.80^b kg; reduced shear force compared with controls [10]: 1.15 kg; Shear force, 3 d [11]: 6.02 kg; Shear force, 7 d [11]: 5.56 kg; Shear force, 14 d [11]: 4.60 kg
